Measured values reported in US7919260B2, “Screening methods using GPR52” (Takeda Pharmaceutical Company Limited, priority 2005, dated 2011).

Tests used:
Format in all cases: cell-based
GPR52 [1] = target: T1, GPR52 (Homo sapiens, UniProt Q9Y2T5); experiment: Increase of intracellular cAMP levels in human GPR52 expression CHO cell line (cAMP Screen Kit); set-up: expressed in transfected cells; conditions: reserpine in various concentrations, 30 minutes; negative controls Mock CHO and TGR5 CHO cell lines (FIG. 3)
Description: The human GPR52 expression CHO cells obtained in REFERENCE EXAMPLE 1 was washed in the assay medium (HBSS (Gibco BRL) supplemented with 0.2 mM isobutylmethylxanthine), followed by incubation for 30 minutes under conditions at 37° C. in 5% CO2. Then, reserpine diluted in the assay medium was added in various concentrations. The assay buffer alone was used as a Base. After the addition, incubation was conducted for 30 minutes under conditions at 37° C. in 5% CO2. The culture supernatant was discarded and the intracellular cAMP level was assayed on the plate reader (EnVision, Perkin-Elmer) in accordance with the protocol of cAMP Screen Kit (Applied Biosystems). As negative controls, the CHO cell line (Mock) wherein no exogenous receptor was expressed and the CHO cell line (TGR5) wherein Gs-conjugated receptor TGR5 was stably expressed were co-assayed.

GPR52 [2] = target: T1, GPR52; experiment: Changes in intracellular calcium levels on FLIPR in CNGC-E583M/HEK293 cells transiently expressing human GPR52; set-up: expressed in transfected cells; host or cells: CNGC-E583M/HEK293 cells (HEK293 stably expressing rat olfactory cyclic nucleotide-gated channel E583M), transient transfection of pAKKO-GPR52; conditions: human GPR52 transiently expressed in CNGC-E583M/HEK293; reserpine 1.0-100 μM (FIG. 1), methoctramine 15-75 μM (FIG. 2); no such response in control cells transfected with other receptor vector
Description: The stable expression cell line (CNGC-E583M/HEK293 cell line) of rat olfactory cyclic nucleotide-gated channel (CNGC-E583M), which was used as a host cell, was obtained by inserting rat olfactory cyclic nucleotide-gated channel (CNGC-E583M) cDNA into expression vector pcDNA3.1(+) neo (Invitrogen) (pcDNA3.1-CNGC), transfecting pcDNA3.1-CNGC into HEK293 cells (purchased from ATCC) in a conventional manner, and incubating the cells in DMEM (Dulbecco's modified Eagle medium) supplemented with 10% fetal calf serum (Invitrogen) and 800 mg/l geneticin (Invitrogen) under 5% CO2 at 37° C. [Fagan et al., FEBS, 500, 85 (2001); Reinescheid et al., European Journal of Pharmacology, 478, 27 (2003)]. The CNGC-E583M/HEK293 cells were incubated in a collagen-coated 75 cm^2 flask. […] First, an assay buffer was prepared to add fluorescence dye Fluo-3AM (DOJIN) to the cells or to wash the cells immediately before the FLIPR assay. […] The mixture was then added to 10.6 ml of the assay buffer supplemented with 105 μl of fetal calf serum, and 20 μl of 500 mM IBMX/DMSO was further added to prepare a fluorescence dye solution. The fluorescence dye solution was dispensed onto the cell plate by 100 μl each/well using an 8-channel pipette and the cells were incubated at 37° C. in a 5% CO2 incubator for an hour (dye loading). […]

human GPR52-GFP = target: T2, human GPR52-GFP (Homo sapiens, UniProt Q9Y2T5, I167T); experiment: Internalization of GPR52-GFP fusion protein expressed in CHO cells (confocal microscopy); conditions: reserpine 10^-4 M, 30 minutes after addition
T2 construct: expressed in transfected cells; host or cells: CHO cells, vector pAKKO-111H
Source text: An expression plasmid was constructed to express a fused protein of Green Fluorescent Protein (GFP) cDNA isolated from jellyfish or Auquorea victoria, fused to GPR52 at the C-terminus to fit the translation frame. In this case, a fragment excised from GFP expression vector pQBI25 (Takara Shuzo) was used as GFP cDNA. In GPR52, its termination codon was modified by PCR to recognition sequence with restriction enzyme NheI, and the GFP fragment was ligated thereto, which was inserted into the expression vector pAKKO-111H [Biochem. Biophys. Acta, 1219, 251 (1994)] and transfected to CHO cells in a conventional manner to obtain the human GPR52-GFP expression CHO cell line. The human GPR52-GFP expression CHO cells were suspended in a growth medium [αMEM (containing nucleic acids: Invitrogen) supplemented with 10% fetal calf serum (GIBCO BRL)] and plated on a Lab-TekII cover glass chamber with 4 chambers (Nalgen Nunc) in a concentration of 0.6×10^5 cells/chamber. […] In this case, GFP was excited at 488 nm.

[3] = tested on: NMDA-type glutamate receptor; experiment: Activation of NMDA-type glutamate receptor in neurons from rat embryonic cerebral cortex (fura-2 intracellular calcium, AQUACOSMOS)
Description: Neurons from rat embryonic cerebral cortex (CAMBREX) were cultured in a 48-well poly-L-lysine (Sumitomo Bakelite) for 14-15 days by a modification of the method attached. A neuron culture medium (Dainippon Pharmaceutical) was used as a medium, unless otherwise indicated. Changes in intracellular calcium levels were assayed using AQUACOSMOS (Hamamatsu Photonics). For assaying the changes in intracellular calcium levels, the following pretreatment was made. First, in order to add fluorescence dye fura-2/AM (Molecular Probes) to cells, an assay buffer used to wash the cells immediately before the assay was prepared. To 1000 ml of HBSS (Invitrogen) supplemented with 20 ml of 1M HEPES (pH7.4) (DOJIN) (hereinafter HBSS/HEPES solution), 10 ml of a solution prepared by dissolving 710 mg of Probenecid (Sigma) in 5 ml of 1N NaOH and further adding 5 ml of the HBSS/HEPES solution thereto was added, and the resulting solution was used as the assay buffer. Next, an equal volume of 20% Pluronic acid (Molecular Device) was added to and mixed with the fura-2/AM stock solution. The mixture was dissolved in the assay buffer in a final concentration of 5 μM fura-2 to prepare the fura-2 fluorescence dye solution. The fura-2 fluorescence dye solution was loaded on neurons from the rat embryonic cerebral cortex, followed by incubation for 30-60 minutes. Thereafter, the changes in calcium levels in the individual neurons were determined using AQUACOSMOS (Hamamatsu Photonics).
Activation of the NMDA-type glutamate receptor in the cerebral cortex was analyzed by the procedures described in EXAMPLE 9.

[4] = tested on: NMDA-type glutamate receptor; experiment: Phosphorylation (Ser897) of NMDA-type glutamate receptor in rat primary culture neurons (western blot, Anti-phospho-NR1); conditions: 50 μM Compound A; cells recovered 1, 2, 5, 15 and 30 minutes after
Description: Using primary culture neurons from the rat […], phosphorylation of the NMDA-type glutamate receptor by GPR52 agonists was studied. Rat (Wistar, Charles River Japan) embryonic brain (E19) was dissected to isolate the cerebral cortex, and the cells were prepared using Neuron Dispersion Set (Dainippon Pharmaceutical). The cells were plated on a 24-well poly-L-lysine plate (3×10^5 cells/well) and incubated for 2 weeks in Neuro Basal (B27, containing 0.5 mM glutamine, GIBCO) medium. Compound A was added to the above cells at a final concentration of 50 μM, and the cells were recovered 1, 2, 5, 15 and 30 minutes after. After the cells were lysed in Invitrogen's NuPAGE Sample Buffer (containing DTT), western blot analysis was performed using antibody Anti-phospho-NR1 (Ser897) (Upstate).

GPR52 [5] = target: T1, GPR52; experiment: Screening of GPR52 agonists: intracellular cAMP in GPR52 stable expression cells (AlphaScreen cAMP Assay Kit); set-up: expressed in transfected cells; conditions: secondary screening at 100-0.1 μM
Description: The GPR52 stable expression cells prepared in REFERENCE EXAMPLE 1 were incubated in a 150 cm^2 at 37° C. overnight in a CO2 incubator. After the incubation, the cells were detached with 0.5 mM EDTA/PBS, and washed in PBS. The cells were then suspended at a density of 1×10^7 cells/ml in Buffer 1 (HBSS+0.1% BSA, 25 mM HEPES, pH 7.3, 0.5 mM IBMX). This cell suspension, 440 μl, was mixed with 22 μl of Anti-cAMP Acceptor Beads of AlphaScreen cAMP Assay Kit (Perkin Elmer) and 638 μl of Buffer 1. The resulting mixture was dispensed on a white 96-well plate (Costar) by 10 μl each. Next, 10 μl each of the test compound dilutions in Buffer 1 was added to each well. After shaking at room temperature for 30 minutes, 20 μl of Biotinyl cAMP and 82 μl of Streptavidin Donor Beads of AlphaScreen cAMP Assay Kit was added to 40 ml of Buffer 2 (HBSS+0.1% BSA, 25 mM HEPES, pH 7.3, 1.5% Tween 20) and the resulting mixture was added to all wells of the plate by 30 μl each. The plate was kept shaken at room temperature for 3 hours and the fluorescence intensities were measured by Fusion α (Perkin Elmer).
Secondary screening was applied to these compounds in various concentrations (100 μM, 30 μM, 10 μM, 3 μM, 1 μM and 0.1 μM) using the procedures described in EXAMPLE 11 (detailed analysis).

SMILES	intracellular cAMP levels (GPR52 [1])	intracellular calcium ion levels (GPR52 [2])	internalization of GPR52-GFP fused protein (GFP fluorescence moved from cell membrane to cytoplasm) (human GPR52-GFP)	calcium level increase (ratio of Fura-2 fluorescence) on addition after glutamate ([3]; 10 μM glutamate, then 0.2 mM methoctramine during diminution of the calcium increase, n=11 neurons (FIG. 4))	calcium level increase (ratio of Fura-2 fluorescence), compound alone without glutamate ([3]; 0.2 mM methoctramine alone, glutamate not added beforehand, n=27 neurons (FIG. 5))	phosphorylation (Ser897) of the NMDA-type glutamate receptor [4]	EC50 (GPR52 [5])	calcium level increase on addition after glutamate ([3]; 10 μM glutamate, then 10 μM Compound A during diminution of the calcium increase)	calcium level increase, compound alone without glutamate ([3]; 15 μM Compound A alone, glutamate not added)
COC(=O)[C@H]1[C@H]2C[C@@H]3c4[nH]c5cc(OC)ccc5c4CCN3C[C@H]2C[C@@H](OC(=O)c2cc(OC)c(OC)c(OC)c2)[C@@H]1OC [reserpine]	detected dose-dependently only in the human GPR52 expression CHO cell line	increased dose-dependently	internalization occurred	–	–	–	–	–	–
COc1ccccc1CNCCCCCCNCCCCCCCCNCCCCCCNCc1ccccc1OC [methoctramine]	–	increased dose-dependently	–	reactivated to induce the calcium level increase	any increase in calcium levels was not observed	–	–	–	–
Cc1ncc2c(n1)N(CCCN1CCNCC1)CCC2Nc1cccc(Oc2cccc(Cl)c2)c1.Cl.Cl.Cl.Cl (stereo not shown) [Compound A, N-[3-(3-chlorophenoxy)phenyl]-2-methyl-8-[3-(1-piperazinyl)propyl]-5,6,7,8-tetrahydropyrido[2,3-d]pyrimidine-5-amine tetrahydrochloride]	–	–	–	–	–	induced phosphorylation (Ser897)	2100 nM	reactivated to induce the calcium level increase	any increase in calcium levels was not observed
